Read-outs that look alike come from different tables or passages of the source.
Experiments:
[1] = system: H630R10; test: AlamarBlue cell proliferation assay; format: cell-based, human; conditions: 120 hours drug exposure
Method: (§1) Cells growing exponentially were transferred to 384-well flat bottom tissue culture plates. All cell types were plated at a density of 500 cells per well in 25 μL of complete medium (RPMI 1640+10% fetal bovine serum+antibiotics/antimycotics). After 24 hours (day 0), 25 μL of complete medium containing the compounds over the dose range of 10^−3 to 10^−10 M were added in triplicate. Drug exposure time was 120 hours (day 5), after which growth inhibition was assayed. 5 μL of the redox indicator, alamarBlue, was added to each well (10% v/v). After 4 hours incubation at 37° C., fluorescence was monitored at 535 nm excitation and 595 nm emission.
(§2) Numbering in Tables 5 and 6 refer to the structures, shown infra. Results from testing using the alamarBlue assay are shown in Table 5, and results from crystal violet based assays are shown in Table 6. MCF7-TDX was derived from MCF7 breast tumor cells via selection in cell culture in the presence of Tomudex, a direct inhibitor of TS. Such selection often results in high intracellular levels of TS (Freemantle, S. J. et al. (1995)). Similarly, H630R10 is a 5FU (fluoropyrimidine) resistant colon cancer epithelial cell line derived from H630 colon cancer cells. See, Copur, S. et al. (1995). HT1080, #12, is a fibrosarcoma tumor cell line that expresses high levels of TS via a transgene introduced into HT1080 tumor cells. […]

[2] = system: normal and tumor cells; test: Cell proliferation assays (alamarBlue, crystal violet), results stated in words; format: cell-based, human; conditions: summary of Tables 5-7
Method: as §1
The data in both Tables 5 and 6 indicate that most compounds are active as phosphoramidates and nucleosides. […] Cytotoxicity results with the nucleosides, especially BVdU, NB1020™ (ClVdU) and NB1024™, are surprising since the literature teaches that 5-substituted compounds like BVdU are not efficiently monophosphorylated by human cells unless they express viral thymidine kinase. See, Balzarini, J. et al. (1985) and De Clerq, E. et al. (1997). These authors have proposed that once phosphorylated by the herpesvirus-encoded TK, the 5-substituted nucleotide derivative can bind to the TS enzyme and inactivate it. […] Alternatively, some tumor cells may have an unusually high amount, or form the normal TK enzyme (Suki, S. et al. (1995); and Romain, S. et al. (1995)), leading to a low, but sufficient activation of nucleosides to their corresponding monophosphates.

[3] = system: HT1080 #12; test: Crystal violet cell proliferation inhibition assay; format: cell-based; conditions: crystal violet procedure, Table 7; high TS; read-out: Cytotoxic Activity, TS HT1080 #12
Description: (§3) Numbering in Tables 5 and 6 refer to the structures, shown infra. Results from testing using the alamarBlue assay are shown in Table 5, and results from crystal violet based assays are shown in Table 6. MCF7-TDX was derived from MCF7 breast tumor cells via selection in cell culture in the presence of Tomudex, a direct inhibitor of TS. Such selection often results in high intracellular levels of TS (Freemantle, S. J. et al. (1995)). Similarly, H630R10 is a 5FU (fluoropyrimidine) resistant colon cancer epithelial cell line derived from H630 colon cancer cells. See, Copur, S. et al. (1995). HT1080, #12, is a fibrosarcoma tumor cell line that expresses high levels of TS via a transgene introduced into HT1080 tumor cells. Normal cell lines used in these assays include CCD18co (normal colon epithelium) and Det551 (normal skin).

[4] = system: CCd18co; test: Crystal violet cell proliferation inhibition assay; format: cell-based, human
Description: as §3

[5] = system: MCF7TDX; test: Crystal violet cell proliferation inhibition assay; conditions: read-out: Cytotoxic Activity, MCF7TDX
Method: The ability of the test compounds to block proliferation of cells was determined by the crystal violet procedure.
Compounds were dissolved in dimethyl sulfoxide to a concentration of 1M. They were further diluted as necessary into DMEM cell culture medium, and subsequently into the first wells of the 96-well microtiter plate. Each concentration was tested in triplicate on the target cell line. Compound concentrations from 1 μM to 3000 μM were tested. Cells were incubated with compound for 72 hours, the plates were washed, and the cells fixed with methanol and stained with crystal violet as described in Sugarman, B. J. et al. (1985); and Antelman, D. et al. (1995).
The ability of each isolated compound to block cell proliferation was then determined by the crystal violet procedure.
The first two cell lines, TS HT1080 #12 and MCF7TDX express high levels of TS, while the other two, CCD18co and Det551, are normal cells.

[6] = system: MCF7TDX; test: AlamarBlue cell proliferation assay; format: cell-based, human; conditions: 120 hours drug exposure
Method: as §1, §2

[7] = system: Det551; test: Crystal violet cell proliferation inhibition assay; format: cell-based, human
Description: as §3

[8] = system: H630R10; test: Amount of nucleoside and monophosphate in cells (HPLC of lysates); format: cell-based, human; conditions: 100 μm BVdU, 2 days treatment
Method: (§4) Cells were incubated in complete media with 100 μm BVdU.

[9] = system: MCF7TDX; test: as above; format: cell-based, human; conditions: 100 μm BVdU, 2 days treatment
Method: as §4

[10] = system: MCF7; test: as above; format: cell-based, human; conditions: 100 μm BVdU, 2 days treatment
Method: as §4

[11] = Crystal violet cell proliferation inhibition assay; format: cell-based, human; conditions: human, crystal violet procedure, Table 7, normal cells
Description: as §3

[12] = crystal violet procedure, Table 7, normal cells, read-out: Cytotoxic Activity, CCD18co
[13] = crystal violet procedure, Table 7, high TS
[14] = crystal violet procedure, Table 7, normal cells, read-out: Cytotoxic Activity, Det551

Compound	cytotoxic / growth inhibiting activity in words [2]	IC50 [3]	IC50 [4, 12]	IC50 [5, 13]	IC50 [7, 14]	also measured
COC(=O)C(C)NP(=O)(OCC1OC(n2ccc(=O)[nH]c2=O)CC1O)Oc1ccccc1 (centres unmarked) [NB1025]	active	–	–	–	–	IC50 [1]: 192 µM
O=c1[nH]c(=O)n([C@H]2C[C@H](O)[C@@H](CO)O2)cc1/C=C/C=C\Br (single isomer, unassigned; isomer 1) [NB1024 Isomer 1, 5-(4-Bromo-1E,3Z-butadienyl)-2′-dexoyuridine]	significantly greater growth inhibiting activity	10.1 µM	> 300 µM	9.8 µM	–	–
5-(2-Bromovinyl)-2′-Deoxyuridine Phenyl N-Methoxy-L-alaninyl Phosphoramidate [NB1011]	–	4.3 µM	461 µM	4.2 µM	263 µM	IC50 [6]: 2 µM; IC50 ([4]; crystal violet, 72 hours, normal colon epithelium, read-out: IC50 CCD18co): 408 µM; IC50 ([7]; crystal violet, 72 hours, normal skin, read-out: IC50 Det551): 356 µM
O=c1[nH]c(=O)n([C@H]2C[C@H](O)[C@@H](CO)O2)cc1/C=C/C=C/Br (single isomer, unassigned; isomer 2) [NB1024 Isomer 2, 5-(4-Bromo-1E,3E-butadienyl)-2′-dexoyuridine]	–	> 300 µM	–	> 300 µM	> 300 µM	–
O=c1ccn(C2CC(O)C(CO)O2)c(=O)[nH]1 (centres unmarked) [NB1026]	little detectable activity	–	–	–	–	–
O=c1[nH]c(=O)n([C@H]2C[C@H](O)[C@@H](CO)O2)cc1/C=C/Br [BVDU, (E)-5-(2-Bromovinyl)-2′-deoxyuridine]	–	–	–	–	–	BVdU level in cell lysate [8]: 26.3 HPLC peak area at 300 nm; BvdUMP/(BVdUMP + BVdU) × 100 [8]: <4; BVdU level in cell lysate [9]: 39.0 HPLC peak area at 300 nm; BvdUMP/(BVdUMP + BVdU) × 100 [9]: 21.2; BVdU level in cell lysate [10]: 90.8 HPLC peak area at 300 nm; BvdUMP/(BVdUMP + BVdU) × 100 [10]: 44.2; IC50 at 72 h ([11]; CCD18co cells (normal colon epithelium), read-out: Cytotoxic Activity, CCD18co): > 1000 µM; IC50 at 72 h ([11]; Det551 cells (normal skin), read-out: Cytotoxic Activity, Det551): > 1000 µM; IC50 ([5]; Homo sapiens): < 0.8 µM

From patent US6683061B1, “Enzyme catalyzed therapeutic activation” (NewBiotics, Inc., priority 1999, dated 2004)
